# Read-outs that look alike come from different tables or passages of the source.
# Tests used:
# testes = assay: 5 day systemic administration in male SH rats, testis; format: in vivo, rat; settings: male SH rats, oral daily for 5 days at 50 mg/ml, day 6
# PWR-1E cells [1] = assay: Antiproliferation assay, PWR-1E cells (Example 48); format: cell-based; settings: read-out: IC50 PWR-1E cell
# Procedure: (§1) To determine the effect of lonidamine and analogs thereof on cell proliferation, the antiproliferative activity of these compounds was tested in a multi-well Alamar Blue based assay (at 2 h and 3 days). Cell growth in the presence and absence of the test compound (compounds 1-22) was compared, as measured by a fluorescence plate reader at excitation 550 nm and emission 590 nm (see Biosource International Inc., Tech Application Notes, Use of Alamar Blue in the measurement of Cell Viability and Toxicity, Determining IC50). H460 cells (ATCC HTB-177 ([…]), 4,000 cells/well/200 μl) and LNCap cells (ATCC CRL-1740, 6,000 cells/well/200 μl) were seeded in a 96 well plate in RPMI medium (Invitrogen Corporation, Carlsbad, Calif.). After 24 hours, these plates were divided into 3 groups—Control group, 2 h treatment group and 3 day treatment group. In the 2 h treatment group, after 2 h the cells were rinsed to remove the test compound and incubated for 3 days, followed by staining with AlamarBlue. The cells in the 3 day treatment group were incubated for 3 days, followed by staining with AlamarBlue. In the Control group, AlamarBlue was added to the plate at (i) day 0 and (ii) day 3 and measured to establish the control reading.
# The effect of lonidamine and analogs thereof on cell proliferation in PWR-1E cells (ATCC CRL-11611) was determined in an antiproliferative assay using PWR-1E cells (5000 cells/well) in Keratinocyte SFM medium (Gibco Products, Invitrogen Corporation, Carlsbad, Calif.) according to the procedure detailed in Example 47 above.
# LNCaP cells = assay: Antiproliferation assay (Alamar Blue), LNCaP cells; format: cell-based, human; settings: 3 day treatment, read-out: GI50 LNCaP cell 3days
# Procedure: as §1
# H460 cells = assay: Antiproliferation assay (Alamar Blue), H460 cells; format: cell-based
# Procedure: as §1
# SH rat prostate = assay: 5 day systemic administration in male SH rats, prostate; format: in vivo; settings: male SH rats, oral daily for 5 days at 50 mg/ml, day 6
# Procedure: The effect of test compounds (lonidamine and lonidamine analogs) on the SH rat prostate was determined as follows. The test compound was orally administered daily for 5 days to male, SH rat, (n=6, 14 weeks old, Charles River Labs) at 50 mg/ml concentrations (as a 0.5% carboxymethylcellulose formulation). The control rats received an equal amount of the vehicle ([…]). Blood samples were collected 2 hours after administration on day 6, for pharmokinetic analysis of the compounds. On day 6 the rats were sacrificed and the entire prostate and the individual lobes (e.g., the ventral, dorso-lateral, and anterior lobes) were removed and weighed to measure absolute weights. Relative weights of prostate and individual lobes were calculated by dividing the absolute weight by the total body weight of the […]. Relative weights of the entire prostate, the dorsal prostate, and the ventral prostate were calculated by dividing the absolute weight by the total weight of the mouse. The histomorphology of the prostate was also analyzed and compared to that of the control or untreated prostate.
# PWR-1E cells [2] = assay: Antiproliferation assay 3 days, PWR-1E cells (Example 49); format: cell-based; settings: 3 day treatment; read-out: PWR1e cell line IC50
# Procedure: (§2) To determine the effect of lonidamine analogs thereof on cell proliferation, the antiproliferative activity of these compounds was tested in a multi-well Alamar Blue based assay (at 3 days). Cell growth in the presence and absence of the test compound was compared, as measured by a fluoresence plate reader at excitation 550 nm and emission 590 nm (see Biosource International Inc., Tech Application Notes, Use of Alamar Blue in the measurement of Cell Viability and Toxity, Determining IC50). The following cell lines were tested: PWR-1E cells ((ATCC CRL-11611), 3500 cells/well/200 μl in Keratinocyte SFM medium (Gibco Products, Invitrogen Corporation, Carlsbad, Calif.)); DU-145 cells ((ATCC HTB-81), 4000 cells/well/200 μl in MEM Eagles medium (ATCC, Manassas, Va.)); PC3 cells ((ATCC CRL-1435), 4000 cells/200 μl in Modified HAM's F12 medium (ATCC, Manassas, Va.)); PNt2 cells ((Sigma-Aldrich, 95012613-1 VL), 4000 cells/well/200 μl in RPMI medium (Gibco Products, Invitrogen Corporation, Carlsbad, Calif.), BPH-1 ((DSMZ ACC-143), 4000 cells/well/200 μl in RPMI medium (Gibco Products, Invitrogen Corporation, Carlsbad, Calif), and NCI-H460 cells ((ATCC HTB-177), 4000 cells/well/200 μl in RPMI medium (Gibco Products, Invitrogen Corporation, Carlsbad, Calif.)). The cells were seeded in a 96 well plate in a medium specified above. After 24 hours, these plates were divided into 2 groups—Control group and 3 day treatment group. A test compound was added to each plate in the treatment groups at concentrations of […] as tabulated in Table 1 (in 2 μl 1 of 100% DMSO, final DMSO concentration 1% in all wells). For NCI-H460 cells, test compounds were added to each plate in the treatment groups at concentrations of 600, 300, 100, 30, 10, 3, and 1 μM (in 2 μl of 100% DMSO, final DMSO concentration 1% in all wells). The cells in the 3 day treatment group were incubated for 3 days, followed by staining with AlamarBlue. In the Control group, AlamarBlue was added to the plate at (i) day 0 and (ii) day 3 and measured to establish the control reading. […] For the NCI-H460 cells, the capacity of the cells to proliferate was measured 5 hours after addition of AlamarBlue using the same fluorescence plate reader as stated above.
# DU-145 cells = assay: Antiproliferation assay 3 days, DU-145 cells; format: cell-based; settings: 3 day treatment; read-out: Du-145 cell line IC50
# Procedure: as §2
# PNt2 cells = assay: Antiproliferation assay 3 days, PNt2 cells; format: cell-based; settings: 3 day treatment; read-out: PNT2c cell line IC50
# Procedure: as §2
# mouse prostate cells = assay: In vivo viability and proliferation of mouse prostate cells (TUNEL, PCNA); settings: mice treated with 20 mg/kg, with respect to vehicle
# Procedure: Prostate cells harvested from mice treated with 20 mg/kg of Compound I were assayed by the TUNEL assay (e.g., see Example 48).
smiles,measurement,setting,value
O=C(NO)c1nn(Cc2ccc(Cl)cc2Cl)c2ccccc12 [Compound 1],Testis shrinkage,testes,−2.5%
same,IC50,PWR-1E cells [1],4 µM
same,GI50,LNCaP cells,40 µM
same,GI50,"H460 cells; 3 day treatment, read-out: GI50 H460 cell 3 days",15.8 µM
same,GI50,"H460 cells; read-out: GI50 H460 cell 2 hr, 2 h treatment then 3 days incubation",50 µM
same,Prostate shrinkage,SH rat prostate,−4.8%
same,IC50,PWR-1E cells [2],5.3 µM
same,IC50,DU-145 cells,11 µM
same,IC50,PNt2 cells,17 µM
same,apoptosis of prostate cells (TUNEL assay),mouse prostate cells,more apoptotic
same,cell cycle inhibition (PCNA assay),mouse prostate cells,greater cell cycle inhibition

# Reference: US20070015771A1, “Lonidamine analogs” (Threshold pharmaceuticals, Inc., priority 2004, published 2007)
